Measurements published in US20260274892A1, “MACROCYCLIC BROAD SPECTRUM ANTIBIOTICS” (RQx Pharmaceuticals, Inc., priority 2017, published 2026).

Legend:
[1] = tested on: Methicillin Resistant Staphylococcus aureus strain USA 200; assay: Minimum inhibitory concentration (MIC), CLSI broth micro-dilution, S. aureus; format: cell-based; conditions: Staphylococcus aureus, MRSA / USA200, MRSA USA 200, cation adjusted Mueller Hinton Broth + 0.002% Tween-80, 35° C., 22 hours
Summary of the method: (§1)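 Antibacterial potency is measured as MIC by the CLSI broth dilution method. Bacteria at OD600 0.0005 in Tween-80-supplemented cation-adjusted Mueller Hinton broth face ten twofold compound dilutions for 22 h at 35° C.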

[2] = tested on: Escherichia coli ATCC 25922; assay: Minimum inhibitory concentration (MIC), CLSI broth micro-dilution, E. coli; format: cell-based; conditions: Escherichia coli, ATCC25922, 22 h
Summary of the method: as §1

[3] = Table 6, cation adjusted Mueller Hinton Broth + 0.002% Tween-80, 35° C.

Structure (SMILES) | MIC ([1]; Table 6) [µM] | MIC [2, 3] [µM] | MIC ([1]; Table 8) [µM] | MIC ([2]; Table 8, cation adjusted Mueller Hinton Broth + 0.002% Tween-80, 35° C.) [µM]
Cc1nc(-c2ccc(C(C)(C)C)cc2)ncc1C(=O)N[C@@H](CCN)C(=O)N(C)[C@@H]1C(=O)N[C@@H](C)C(=O)N[C@H](C(=O)NCC#N)Cc2ccc(OCCN)c(c2)-c2cc1ccc2O (racemic) [Compound 549, rac-(8S,11S,14S)-3-(2-aminoethoxy)-N-(cyanomethyl)-18-hydroxy-11-methyl-14-[methyl-[rac-(2S)-4-amino-2-[[2-(4-tert-butylphenyl)-4-methyl-pyrimidine-5-carbonyl]amino]butanoyl]amino]-10,13-dioxo-9,12-diazatricyclo[13.3.1.12,6]icosa-1(18),2(20),3,5,15(19),16-hexaene-8-carboxamide] | 0.035 | 0.21 | – | –
Cc1nc(-c2ccc(OC(C)(C)C)cc2)nc(C)c1C(=O)N[C@@H](CCN)C(=O)N(C)[C@@H]1C(=O)N[C@@H](C)C(=O)N[C@H](C(=O)NCC#N)Cc2ccc(OCCN)c(c2)-c2cc1ccc2OCCN (racemic) [Compound 342, rac-(8S,11S,14S)-3,18-bis(2-aminoethoxy)-N-(cyanomethyl)-11-methyl-14-[methyl-[rac-(2S)-4-amino-2-[[2-(4-tert-butoxyphenyl)-4,6-dimethyl-pyrimidine-5-carbonyl]amino]butanoyl]amino]-10,13-dioxo-9,12-diazatricyclo[13.3.1.12,6]icosa-1(18),2(20),3,5,15(19),16-hexaene-8-carboxamide] | 0.097 | 0.39 | – | –
Cc1cc(-c2ccc(S(F)(F)(F)(F)F)cc2)ccc1C(=O)N[C@@H](CCN)C(=O)N(C)[C@@H]1C(=O)N[C@@H](C)C(=O)N[C@H](C(=O)NCC#N)Cc2ccc(OCCN)c(c2)-c2cc1ccc2OCCN (racemic) [Compound 202, rac-(8S,11S,14S)-3,18-bis(2-aminoethoxy)-N-(cyanomethyl)-11-methyl-14-[methyl-[rac-(2S)-4-amino-2-[[2-methyl-4-[4-(pentafluoro-lambda6-sulfanyl)phenyl]benzoyl]amino]butanoyl]amino]-10,13-dioxo-9,12-diazatricyclo[13.3.1.12,6]icosa-1(18),2(20),3,5,15(19),16-hexaene-8-carboxamide] | 0.023 | 0.37 | – | –
CCc1ccc(-c2nc(C)c(C(=O)N[C@@H](CCN)C(=O)N(C)[C@@H]3C(=O)N[C@@H](C)C(=O)N[C@H](C(=O)NCC#N)Cc4ccc(O)c(c4)-c4cc3ccc4OCCN)c(C)n2)cc1 (racemic) [Compound 516, rac-(8S,11S,14S)-18-(2-aminoethoxy)-N-(cyanomethyl)-3-hydroxy-11-methyl-14-[methyl-[rac-(2S)-4-amino-2-[[2-(4-ethylphenyl)-4,6-dimethyl-pyrimidine-5-carbonyl]amino]butanoyl]amino]-10,13-dioxo-9,12-diazatricyclo[13.3.1.12,6]icosa-1(18),2(20),3,5,15(19),16-hexaene-8-carboxamide] | 0.19 | 2 | – | –
CCCCCCOc1ccc(-c2nc(C)c(C(=O)N[C@@H](CCN)C(=O)N(C)[C@@H]3C(=O)N[C@@H](C)C(=O)N[C@H](C(=O)O)Cc4ccc(OCCN)c(c4)-c4cc3ccc4OCCN)c(C)n2)cc1 (racemic) [Compound 641, rac-(8S,11S,14S)-3,18-bis(2-aminoethoxy)-11-methyl-14-[methyl-[rac-(2S)-4-amino-2-[[2-(4-hexoxyphenyl)-4,6-dimethyl-pyrimidine-5-carbonyl]amino]butanoyl]amino]-10,13-dioxo-9,12-diazatricyclo [13.3.1.12,6]icosa-1(18),2(20),3,5,15(19), 16-hexaene-8-carboxylic acid] | – | – | 0.047 | 0.094
Cc1nc(-c2ccc(OC3CCCCC3)cc2)nc(C)c1C(=O)N[C@H](CO)C(=O)N(C)[C@@H]1C(=O)N[C@@H](C)C(=O)N[C@H](C(=O)NCC#N)Cc2ccc(OCCN)c(c2)-c2cc1ccc2OCCN [Compound 508, (8S,11S,14S)-3,18-bis(2-aminoethoxy)-N-(cyanomethyl)-14-[[(2R)-2-[[2-[4-(cyclohexoxy)phenyl]-4,6-dimethyl-pyrimidine-5-carbonyl]amino]-3-hydroxy-propanoyl]-methyl-amino]-11-methyl-10,13-dioxo-9,12-diazatricyclo[13.3.1.12,6]icosa-1(18),2(20),3,5,15(19),16-hexaene-8-carboxamide] | 1 | 6 | – | –

Continued, values first:

MIC ([1]; Table 6) [µM] | MIC [2, 3] [µM] | MIC ([1]; Table 8) [µM] | MIC ([2]; Table 8, cation adjusted Mueller Hinton Broth + 0.002% Tween-80, 35° C.) [µM] | Structure (SMILES)
0.016 | 0.5 | – | – | CCCCCCOc1ccc2nc(C)c(C(=O)N[C@@H](CCN)C(=O)N(C)[C@@H]3C(=O)N[C@@H](C)C(=O)N[C@H](C(=O)NCC#N)Cc4ccc(OCCN)c(c4)-c4cc3ccc4OCCN)cc2c1 (racemic) [Compound 396, rac-(8S,11S,14S)-3,18-bis(2-aminoethoxy)-N-(cyanomethyl)-11-methyl-14-[methyl-[rac-(2S)-4-amino-2-[(6-hexoxy-2-methyl-quinoline-3-carbonyl)amino]butanoyl]amino]-10,13-dioxo-9,12-diazatricyclo[13.3.1.12,6]icosa-1(18),2(20),3,5,15(19),16-hexaene-8-carboxamide]
0.025 | 0.13 | – | – | Cc1nc(-c2ccc(C(C)(C)C)cc2)ccc1C(=O)N[C@@H](CCN)C(=O)N(C)[C@@H]1C(=O)N[C@@H](C)C(=O)N[C@H](C(=O)NCC#N)Cc2ccc(OCCN)c(c2)-c2cc1ccc2OCCN (racemic) [Compound 206, rac-(8S,11S,14S)-3,18-bis(2-aminoethoxy)-N-(cyanomethyl)-11-methyl-14-[methyl-[rac-(2S)-4-amino-2-[[6-(4-tert-butylphenyl)-2-methyl-pyridine-3-carbonyl]amino]butanoyl]amino]-10,13-dioxo-9,12-diazatricyclo[13.3.1.12,6]icosa-1(18),2(20),3,5,15(19),16-hexaene-8-carboxamide]
0.016 | 0.38 | – | – | Cc1nc([C@H]2CC[C@H](C(C)(C)C)CC2)nc(C)c1C(=O)N[C@@H](CCN)C(=O)N(C)[C@@H]1C(=O)N[C@@H](C)C(=O)N[C@H](C(=O)NCC#N)Cc2ccc(OCCN)c(c2)-c2cc1ccc2OCCN [Compound 296, rac-(8S,11S,14S)-3,18-bis(2-aminoethoxy)-N-(cyanomethyl)-11-methyl-14-[methyl-[rac-(2S)-4-amino-2-[[2-(4-tert-butylcyclohexyl)-4,6-dimethyl-pyrimidine-5-carbonyl]amino]butanoyl]amino]-10,13-dioxo-9,12-diazatricyclo[13.3.1.12,6]icosa-1(18),2(20),3,5,15(19),16-hexaene-8-carboxamide]
0.016 | 0.19 | – | – | Cc1cc(-c2ccc(C(C)(C)C)cc2F)nc(C)c1C(=O)N[C@@H](CCN)C(=O)N(C)[C@@H]1C(=O)N[C@@H](C)C(=O)N[C@H](C(=O)NCC#N)Cc2ccc(OCCN)c(c2)-c2cc1ccc2OCCN (racemic) [Compound 363, rac-(8S,11S,14S)-3,18-bis(2-aminoethoxy)-N-(cyanomethyl)-11-methyl-14-[methyl-[rac-(2S)-4-amino-2-[[6-(4-tert-butyl-2-fluoro-phenyl)-2,4-dimethyl-pyridine-3-carbonyl]amino]butanoyl]amino]-10,13-dioxo-9,12-diazatricyclo[13.3.1.12,6]icosa-1(18),2(20),3,5,15(19),16-hexaene-8-carboxamide]
